Laboratory results published in US7119075B2, “Use of herbal agents for potentiation of bioefficacy of anti infectives” (priority 2003, dated 2006).

Key:
M. tuberculosis = assay: MIC of drugs alone and with bioenhancer (Table 7); type: cell-based; details: for MIC: Mycobacterium tuberculosis, Drug alone
Yeast = assay: MIC of drugs alone and with bioenhancer (Table 7); type: cell-based; details: for MIC: Saccharomyces cerevisiae, read-out: MIC Drug alone
Filamentous fungi = assay: organism not typed; type: cell-based
Gram positive bacteria = assay: organism not typed; type: cell-based; details: for MIC: read-out: MIC Drug alone
Gram negative bacteria = assay: organism not typed; type: cell-based; details: for MIC: read-out: MIC Drug alone
MRSA 450 = assay: microbe, parasite or virus in culture; details: Staphylococcus aureus
MRSA 15187 = assay: microbe, parasite or virus in culture; details: Staphylococcus aureus
[1] = test system: Staphylococcus aureus ATCC 29313; assay: Inhibitory effect of bioenhancers alone; type: cell-based
[2] = test system: Methicillin Resistant Staphylococcus aureus (MRSA); assay: Inhibitory effect of bioenhancers alone; type: cell-based
[3] = test system: Staphylococcus epidermidis ATCC 12228; assay: Inhibitory effect of bioenhancers alone; type: cell-based
[4] = test system: Staphylococcus hemolyticus ATCC 29978; assay: Inhibitory effect of bioenhancers alone; type: cell-based
Bacillus cereus RRL 02 = assay: Inhibitory effect of bioenhancers alone; type: cell-based
[5] = test system: Escherichia coli ATCC 25922; assay: Inhibitory effect of bioenhancers alone; type: cell-based
Salmonella typhi AIIMS 2 = assay: Inhibitory effect of bioenhancers alone; type: cell-based
[6] = test system: Klebsiella pneumoniae ATCC 75388; assay: Inhibitory effect of bioenhancers alone; type: cell-based
[7] = test system: Pseudomonas aeruginosa ATCC 27583; assay: Inhibitory effect of bioenhancers alone; type: cell-based
[8] = test system: Candida tropicalis ATCC 750; assay: Inhibitory effect of bioenhancers alone; type: cell-based
Candida krusei ATCC 6258 = assay: Inhibitory effect of bioenhancers alone; type: cell-based
[9] = test system: Aspergillus flavus MTCC 1973; assay: Inhibitory effect of bioenhancers alone; type: cell-based
[10] = test system: Aspergillus fumigatus SI-1; assay: Inhibitory effect of bioenhancers alone; type: cell-based
[11] = test system: Mycobacterium tuberculosis H37Rv; assay: Inhibitory effect of bioenhancers alone; type: cell-based
[12] = test system: Mycobacterium tuberculosis 615; assay: Inhibitory effect of bioenhancers alone; type: cell-based
[13] = test system: Mycobacterium avium ATCC 49601; assay: Inhibitory effect of bioenhancers alone; type: cell-based
[14] = test system: Mycobacterium intracelluare ATCC 13950; assay: Inhibitory effect of bioenhancers alone; type: cell-based

CC[C@@H](CO)NCCN[C@@H](CC)CO [Ethambutol]
1 to 5 µg/mL: MIC (M. tuberculosis)

CC(=O)N1CCN(c2ccc(OCC3COC(Cn4ccnc4)(c4ccc(Cl)cc4Cl)O3)cc2)CC1 (centres unmarked) [Ketoconazole]
0.25 to 2 µg/mL: MIC (Filamentous fungi; read-out: MIC Drug alone)
0.12 to 0.5 µg/mL: MIC (Yeast)

NC(=O)c1cnccn1 [Pyrazinamide]
6 to 60 µg/mL: MIC (M. tuberculosis)

C[C@@H]1[C@H](O)[C@@H](C)/C=C/C=C/C=C/C=C/C=C/C=C/C=C/[C@H](O[C@@H]2O[C@H](C)[C@@H](O)[C@H](N)[C@@H]2O)C[C@@H]2O[C@](O)(C[C@@H](O)C[C@@H](O)[C@H](O)CC[C@@H](O)C[C@@H](O)CC(=O)O[C@H]1C)C[C@H](O)[C@H]2C(=O)O [Amphotericin B]
0.25 to 4 µg/mL: MIC Drug alone (Filamentous fungi; Drug alone)
0.25 to 2.0 µg/mL: MIC Drug alone (Yeast; Drug alone)

CO/N=C(\C(=O)N[C@@H]1C(=O)N2C(C(=O)O)=C(CSc3nc(=O)c(O)nn3C)CS[C@H]12)c1csc(N)n1 [Ceftrioxone]
0.03 to 32 µg/mL: MIC Drug alone (Gram negative bacteria)
0.12 to 32 µg/mL: MIC Drug alone (Gram positive bacteria)

O=C(O)c1cn(C2CC2)c2cc(N3CCNCC3)c(F)cc2c1=O [Ciprofloxacin]
0.03 to 0.5 µg/mL: MIC (Gram negative bacteria)
0.5 to 1 µg/mL: MIC (M. tuberculosis)
64 µg/mL: MIC (MRSA 450) | MIC (MRSA 15187)
0.12 to 32 µg/mL: MIC (Gram positive bacteria)

OC(Cn1cncn1)(Cn1cncn1)c1ccc(F)cc1F [Fluconazole]
0.12 to 64 µg/mL: MIC (Yeast)

CCn1cc(C(=O)O)c(=O)c2cc(F)c(N3CCNCC3)cc21 [Norfloxacin]
0.03 to 64 µg/mL: MIC Drug alone (Gram negative bacteria)
0.12 to 32 µg/mL: MIC (Gram positive bacteria)

COCC1=C(C(=O)O)N2C(=O)[C@@H](NC(=O)/C(=N\OC)c3csc(N)n3)[C@H]2SC1 [Cefpedoxime]
0.12 to 16 µg/mL: MIC Drug alone (Gram positive bacteria)
0.03 to 64 µg/mL: MIC Drug alone (Gram negative bacteria)

C=CC1=C(C(=O)O)N2C(=O)[C@@H](NC(=O)/C(=N\O)c3csc(N)n3)[C@H]2SC1 [Cefdinir]
0.06 to 32 µg/mL: MIC (Gram positive bacteria)
0.25 to 64 µg/mL: MIC (Gram negative bacteria)

CN[C@H](CC(C)C)C(=O)N[C@H]1C(=O)N[C@@H](CC(N)=O)C(=O)N[C@H]2C(=O)N[C@H]3C(=O)N[C@H](C(=O)N[C@H](C(=O)O)c4cc(O)cc(O)c4-c4cc3ccc4O)[C@H](O)c3ccc(c(Cl)c3)Oc3cc2cc(c3O[C@@H]2O[C@H](CO)[C@@H](O)[C@H](O)[C@H]2O[C@H]2C[C@](C)(N)[C@H](O)[C@H](C)O2)Oc2ccc(cc2Cl)[C@H]1O [Vancomycin]
0.03 to 8 µg/mL: MIC (Gram positive bacteria)

CO[C@H]1/C=C/O[C@@]2(C)Oc3c(C)c(O)c4c(O)c(c(/C=N/N5CCN(C)CC5)c(O)c4c3C2=O)NC(=O)/C(C)=C\C=C\[C@H](C)[C@H](O)[C@@H](C)[C@@H](O)[C@@H](C)[C@H](OC(C)=O)[C@@H]1C [Rifampicin]
0.06 to 0.5 µg/mL: MIC (M. tuberculosis)

NCC[C@H](O)C(=O)N[C@@H]1C[C@H](N)[C@@H](O[C@H]2O[C@H](CN)[C@@H](O)[C@H](O)[C@H]2O)[C@H](O)[C@H]1O[C@H]1O[C@H](CO)[C@@H](O)[C@H](N)[C@H]1O [Amikacin]
0.12 to 4 µg/mL: MIC (Gram negative bacteria)
0.5 to 1 µg/mL: MIC (M. tuberculosis)
2 to 32 µg/mL: MIC (Gram positive bacteria)

NNC(=O)c1ccncc1 [Isoniazid]
0.12 to 32 µg/mL: MIC (M. tuberculosis)

3′,5-Dihydroxy flavone 7-O-β-D-galacturonide-4′-O-β-D-glucopyranoside [pure molecule of Cuminum cyminum]
++++ (No inhibition): inhibitory effect ([1]; conc. 0.2 μg/ml) | inhibitory effect ([1]; conc. 0.8 μg/ml) | inhibitory effect ([1]; conc. 3.12 μg/ml) | inhibitory effect ([1]; conc. 12.5 μg/ml) | inhibitory effect ([1]; conc. 50 μg/ml) | inhibitory effect ([1]; conc. 100 μg/ml) | inhibitory effect ([2]; conc. 0.2 μg/ml) | inhibitory effect ([2]; conc. 0.8 μg/ml) | inhibitory effect ([2]; conc. 3.12 μg/ml) | inhibitory effect ([2]; conc. 12.5 μg/ml) | inhibitory effect ([2]; conc. 50 μg/ml) | inhibitory effect ([2]; conc. 100 μg/ml) | inhibitory effect ([3]; conc. 0.2 μg/ml) | inhibitory effect ([3]; conc. 0.8 μg/ml) | inhibitory effect ([3]; conc. 3.12 μg/ml) | inhibitory effect ([3]; conc. 12.5 μg/ml) | inhibitory effect ([3]; conc. 50 μg/ml) | inhibitory effect ([3]; conc. 100 μg/ml) | inhibitory effect ([4]; conc. 0.2 μg/ml) | inhibitory effect ([4]; conc. 0.8 μg/ml) | inhibitory effect ([4]; conc. 3.12 μg/ml) | inhibitory effect ([4]; conc. 12.5 μg/ml) | inhibitory effect ([4]; conc. 50 μg/ml) | inhibitory effect ([4]; conc. 100 μg/ml) | inhibitory effect (Bacillus cereus RRL 02; conc. 0.2 μg/ml) | inhibitory effect (Bacillus cereus RRL 02; conc. 0.8 μg/ml) | inhibitory effect (Bacillus cereus RRL 02; conc. 3.12 μg/ml) | inhibitory effect (Bacillus cereus RRL 02; conc. 12.5 μg/ml) | inhibitory effect (Bacillus cereus RRL 02; conc. 50 μg/ml) | inhibitory effect (Bacillus cereus RRL 02; conc. 100 μg/ml) | inhibitory effect ([5]; conc. 0.2 μg/ml) | inhibitory effect ([5]; conc. 0.8 μg/ml) | inhibitory effect ([5]; conc. 3.12 μg/ml) | inhibitory effect ([5]; conc. 12.5 μg/ml) | inhibitory effect ([5]; conc. 50 μg/ml) | inhibitory effect ([5]; conc. 100 μg/ml) | inhibitory effect (Salmonella typhi AIIMS 2; conc. 0.2 μg/ml) | inhibitory effect (Salmonella typhi AIIMS 2; conc. 0.8 μg/ml) | inhibitory effect (Salmonella typhi AIIMS 2; conc. 3.12 μg/ml) | inhibitory effect (Salmonella typhi AIIMS 2; conc. 12.5 μg/ml) | inhibitory effect (Salmonella typhi AIIMS 2; conc. 50 μg/ml) | inhibitory effect (Salmonella typhi AIIMS 2; conc. 100 μg/ml) | inhibitory effect ([6]; conc. 0.2 μg/ml) | inhibitory effect ([6]; conc. 0.8 μg/ml) | inhibitory effect ([6]; conc. 3.12 μg/ml) | inhibitory effect ([6]; conc. 12.5 μg/ml) | inhibitory effect ([6]; conc. 50 μg/ml) | inhibitory effect ([6]; conc. 100 μg/ml) | inhibitory effect ([7]; conc. 0.2 μg/ml) | inhibitory effect ([7]; conc. 0.8 μg/ml) | inhibitory effect ([7]; conc. 3.12 μg/ml) | inhibitory effect ([7]; conc. 12.5 μg/ml) | inhibitory effect ([7]; conc. 50 μg/ml) | inhibitory effect ([7]; conc. 100 μg/ml) | inhibitory effect ([8]; conc. 0.2 μg/ml) | inhibitory effect ([8]; conc. 0.8 μg/ml) | inhibitory effect ([8]; conc. 3.12 μg/ml) | inhibitory effect ([8]; conc. 12.5 μg/ml) | inhibitory effect ([8]; conc. 50 μg/ml) | inhibitory effect ([8]; conc. 100 μg/ml) | inhibitory effect (Candida krusei ATCC 6258; conc. 0.2 μg/ml) | inhibitory effect (Candida krusei ATCC 6258; conc. 0.8 μg/ml) | inhibitory effect (Candida krusei ATCC 6258; conc. 3.12 μg/ml) | inhibitory effect (Candida krusei ATCC 6258; conc. 12.5 μg/ml) | inhibitory effect (Candida krusei ATCC 6258; conc. 50 μg/ml) | inhibitory effect (Candida krusei ATCC 6258; conc. 100 μg/ml) | inhibitory effect ([9]; conc. 0.2 μg/ml) | inhibitory effect ([9]; conc. 0.8 μg/ml) | inhibitory effect ([9]; conc. 3.12 μg/ml) | inhibitory effect ([9]; conc. 12.5 μg/ml) | inhibitory effect ([9]; conc. 50 μg/ml) | inhibitory effect ([9]; conc. 100 μg/ml) | inhibitory effect ([10]; conc. 0.2 μg/ml) | inhibitory effect ([10]; conc. 0.8 μg/ml) | inhibitory effect ([10]; conc. 3.12 μg/ml) | inhibitory effect ([10]; conc. 12.5 μg/ml) | inhibitory effect ([10]; conc. 50 μg/ml) | inhibitory effect ([10]; conc. 100 μg/ml) | inhibitory effect ([11]; conc. 0.2 μg/ml) | inhibitory effect ([11]; conc. 0.8 μg/ml) | inhibitory effect ([11]; conc. 3.12 μg/ml) | inhibitory effect ([11]; conc. 12.5 μg/ml) | inhibitory effect ([11]; conc. 50 μg/ml) | inhibitory effect ([11]; conc. 100 μg/ml) | inhibitory effect ([12]; conc. 0.2 μg/ml) | inhibitory effect ([12]; conc. 0.8 μg/ml) | inhibitory effect ([12]; conc. 3.12 μg/ml) | inhibitory effect ([12]; conc. 12.5 μg/ml) | inhibitory effect ([12]; conc. 50 μg/ml) | inhibitory effect ([12]; conc. 100 μg/ml) | inhibitory effect ([13]; conc. 0.2 μg/ml) | inhibitory effect ([13]; conc. 0.8 μg/ml) | inhibitory effect ([13]; conc. 3.12 μg/ml) | inhibitory effect ([13]; conc. 12.5 μg/ml) | inhibitory effect ([13]; conc. 50 μg/ml) | inhibitory effect ([13]; conc. 100 μg/ml) | inhibitory effect ([14]; conc. 0.2 μg/ml) | inhibitory effect ([14]; conc. 0.8 μg/ml) | inhibitory effect ([14]; conc. 3.12 μg/ml) | inhibitory effect ([14]; conc. 12.5 μg/ml) | inhibitory effect ([14]; conc. 50 μg/ml) | inhibitory effect ([14]; conc. 100 μg/ml)

CC1COc2c(N3CCN(C)CC3)c(F)cc3c(=O)c(C(=O)O)cn1c23 (centres unmarked) [Ofloxacin]
0.06 to 32 µg/mL: MIC (Gram negative bacteria)
0.12 to 32 µg/mL: MIC (Gram positive bacteria)
0.5 to 2.5 µg/mL: MIC (M. tuberculosis)
0.5 to 25 µg/mL: MIC Drug alone (M. tuberculosis)

N[C@@H](C(=O)N[C@@H]1C(=O)N2C(C(=O)O)=C(Cl)CS[C@H]12)c1ccccc1 [Cefaclor]
0.25 to 64 µg/mL: MIC (Gram negative bacteria)
0.06 to 32 µg/mL: MIC (Gram positive bacteria)
